Reference: paper PMC7416410, “Synthesis, molecular docking and molecular dynamic simulation studies of 2-chloro-5-[(4-chlorophenyl)sulfamoyl]-N-(alkyl/aryl)-4-nitrobenzamide derivatives as antidiabetic agents” (BMC Chemistry, 2020)

Legend:
[1] = target: T1, α-Glucosidase from Saccharomyces cerevisiae (Saccharomyces cerevisiae, UniProt P53341); test: α-Glucosidase inhibitory assay; assay type: biochemical; settings: for IC50: in vitro
T1 construct: purchased Sigma Aldrich
From the text: The analytical grade chemicals and reagents were used as such in experiments without any purification. Decibel melting point apparatus was used for checking the melting point of the synthesized compounds and are reported as uncorrected. The silica gel-precoated aluminum sheets for thin-layer chromatography (TLC) were employed to keep a vigil of the reaction progress.
The method adopted for performing α-glucosidase inhibitory assay was similar to our prevenient study, Thakral and Singh.

α-amylase from malt = test: α-Amylase inhibitory assay; assay type: biochemical; settings: for IC50: in vitro
From the text: The analytical grade chemicals and reagents were used as such in experiments without any purification. Decibel melting point apparatus was used for checking the melting point of the synthesized compounds and are reported as uncorrected. The silica gel-precoated aluminum sheets for thin-layer chromatography (TLC) were employed to keep a vigil of the reaction progress. FT-IR (Diffuse Reflectance Method (DRS) -8000A, Shimadzu, Japan) spectrophotometer was utilized for recording infrared spectra and the Bruker Avance III, 400 MHz NMR spectrometer was employed for nuclear magnetic resonance spectra (^1H NMR, ^13C NMR; Chemical shift δ values- ppm). α-Glucosidase from Saccharomyces cerevisiae (EC 3.2.1.20, Sigma Aldrich) and α-amylase from malt (232-588-1, HiMedia) have been used for in vitro studies.
Xiao et al., and Yoshikawa et al., illustrated a method, with little modification this method has been adopted for measuring the activity.

T1 sequence (P53341 whole entry): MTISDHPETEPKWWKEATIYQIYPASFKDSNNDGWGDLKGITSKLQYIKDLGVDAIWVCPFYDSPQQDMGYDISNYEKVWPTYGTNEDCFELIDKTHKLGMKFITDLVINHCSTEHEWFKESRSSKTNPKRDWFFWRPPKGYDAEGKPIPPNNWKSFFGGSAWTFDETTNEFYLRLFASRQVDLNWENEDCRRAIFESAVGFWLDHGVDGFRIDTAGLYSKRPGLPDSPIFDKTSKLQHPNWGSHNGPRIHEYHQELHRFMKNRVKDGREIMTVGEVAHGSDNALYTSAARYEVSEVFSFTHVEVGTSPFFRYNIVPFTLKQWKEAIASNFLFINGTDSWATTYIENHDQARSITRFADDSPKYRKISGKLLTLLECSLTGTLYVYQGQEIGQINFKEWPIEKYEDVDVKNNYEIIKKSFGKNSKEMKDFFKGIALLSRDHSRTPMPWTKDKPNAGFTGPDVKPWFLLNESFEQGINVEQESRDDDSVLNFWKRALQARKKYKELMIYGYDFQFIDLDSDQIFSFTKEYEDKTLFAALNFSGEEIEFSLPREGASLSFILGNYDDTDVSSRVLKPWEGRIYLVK

Structure (SMILES)	IC50 [1] [µM]	IC50 (α-amylase from malt) [µM]	melting point [°C]	inhibitory potential against α-glucosidase in comparison to standard drug acarbose ([1]; fold relative to acarbose)	inhibitory activity against α-amylase in comparison to standard drug acarbose (α-amylase from malt; fold relative to acarbose)
Cc1ccc(NC(=O)c2cc(S(=O)(=O)Nc3ccc(Cl)cc3)c([N+](=O)[O-])cc2Cl)cc1 [Compound 5a, 2-Chloro-5-[(4-chlorophenyl)sulfamoyl]-N-(4-methylphenyl)-4-nitrobenzamide]	31.4 ± 1.66	7.4 ± 0.15	90 to 92		
O=C(Nc1ccc([N+](=O)[O-])cc1Cl)c1cc(S(=O)(=O)Nc2ccc(Cl)cc2)c([N+](=O)[O-])cc1Cl [Compound 5n, 2-Chloro-N-(2-chloro-4-nitrophenyl)-5-[(4-chlorophenyl)sulfamoyl]-4-nitrobenzamide]	29.5 ± 1.53	35.3 ± 0.45	214 to 216		
COc1ccccc1NC(=O)c1cc(S(=O)(=O)Nc2ccc(Cl)cc2)c([N+](=O)[O-])cc1Cl [Compound 5e, 2-Chloro-5-[(4-chlorophenyl)sulfamoyl]-N-(2-methoxyphenyl)-4-nitrobenzamide]	41.7 ± 1.08	50.3 ± 0.21	164 to 166		
O=C(Nc1ccc([N+](=O)[O-])cc1)c1cc(S(=O)(=O)Nc2ccc(Cl)cc2)c([N+](=O)[O-])cc1Cl [Compound 5q]	43.9 ± 1.18	11.2 ± 0.67	177 to 179		
Cc1c(NC(=O)c2cc(S(=O)(=O)Nc3ccc(Cl)cc3)c([N+](=O)[O-])cc2Cl)cccc1[N+](=O)[O-] [Compound 5m, 2-Chloro-5-[(4-chlorophenyl)sulfamoyl]-N-(2-methyl-3-nitrophenyl)-4-nitrobenzamide]	24.5 ± 1.23	1.52 ± 0.84	170 to 172		
Cc1cc([N+](=O)[O-])ccc1NC(=O)c1cc(S(=O)(=O)Nc2ccc(Cl)cc2)c([N+](=O)[O-])cc1Cl [Compound 5p, 2-Chloro-5-[(4-chlorophenyl)sulfamoyl]-N-(2-methyl-4-nitrophenyl)-4-nitrobenzamide]	19.5 ± 0.43	2.1 ± 0.52	104 to 106		
COc1ccc(NC(=O)c2cc(S(=O)(=O)Nc3ccc(Cl)cc3)c([N+](=O)[O-])cc2Cl)cc1 [Compound 5d, 2-Chloro-5-[(4-chlorophenyl)sulfamoyl]-N-(4-methoxyphenyl)-4-nitrobenzamide]	38.57 ± 0.01	38 ± 0.51	150 to 152		
Cc1cccc(NC(=O)c2cc(S(=O)(=O)Nc3ccc(Cl)cc3)c([N+](=O)[O-])cc2Cl)c1 [Compound 5b, 2-Chloro-5-[(4-chlorophenyl)sulfamoyl]-N-(3-methylphenyl)-4-nitrobenzamide]	24.8 ± 2.69	5.3 ± 1.23	102 to 104		
O=C(Nc1cccc(Cl)c1)c1cc(S(=O)(=O)Nc2ccc(Cl)cc2)c([N+](=O)[O-])cc1Cl [Compound 5i, 2-Chloro-N-(3-chlorophenyl)-5-[(4-chlorophenyl)sulfamoyl]-4-nitrobenzamide]	14 ± 0.93	27.1 ± 0.51	220 to 222		
O=C(Nc1ccc(Br)cc1)c1cc(S(=O)(=O)Nc2ccc(Cl)cc2)c([N+](=O)[O-])cc1Cl [Compound 5f, N-(4-Bromophenyl)-2-chloro-5-[(4-chlorophenyl)sulfamoyl]-4-nitrobenzamide]	50.2 ± 0.89	16 ± 0.33	200 to 202		
O=C(Nc1cccc(Br)c1)c1cc(S(=O)(=O)Nc2ccc(Cl)cc2)c([N+](=O)[O-])cc1Cl [Compound 5g, N-(3-Bromophenyl)-2-chloro-5-[(4-chlorophenyl)sulfamoyl]-4-nitrobenzamide]	35.9 ± 0.6	16.7 ± 0.41	181 to 183		
CCCCNC(=O)c1cc(S(=O)(=O)Nc2ccc(Cl)cc2)c([N+](=O)[O-])cc1Cl [Compound 5t, N-Butyl-2-chloro-5-[(4-chlorophenyl)sulfamoyl]-4-nitrobenzamide]	131 ± 2.42	55.1 ± 0.71	111 to 113		
Cc1ccc([N+](=O)[O-])cc1NC(=O)c1cc(S(=O)(=O)Nc2ccc(Cl)cc2)c([N+](=O)[O-])cc1Cl [Compound 5o, 2-Chloro-5-[(4-chlorophenyl)sulfamoyl]-N-(2-methyl-5-nitrophenyl)-4-nitrobenzamide]	10.8 ± 0.52	0.9 ± 0.31	203 to 205	fourfold	around six times
O=C(Nc1ccncc1)c1cc(S(=O)(=O)Nc2ccc(Cl)cc2)c([N+](=O)[O-])cc1Cl [Compound 5v, 2-Chloro-5-[(4-chlorophenyl)sulfamoyl]-4-nitro-N-(pyridin-4-yl)benzamide]	52.4 ± 1.92	40.4 ± 0.87	197 to 199		
O=C(Nc1cccc([N+](=O)[O-])c1)c1cc(S(=O)(=O)Nc2ccc(Cl)cc2)c([N+](=O)[O-])cc1Cl [Compound 5r, 2-Chloro-5-[(4-chlorophenyl)sulfamoyl]-4-nitro-N-(3-nitrophenyl)benzamide]	34.4 ± 0.62	15.3 ± 1.24	135 to 137		
O=C(Nc1ccccc1Br)c1cc(S(=O)(=O)Nc2ccc(Cl)cc2)c([N+](=O)[O-])cc1Cl [Compound 5h, N-(2-Bromophenyl)-2-chloro-5-[(4-chlorophenyl)sulfamoyl]-4-nitrobenzamide]	40.6 ± 1.49	19.3 ± 0.63	180 to 182		
O=C(Nc1ccccc1[N+](=O)[O-])c1cc(S(=O)(=O)Nc2ccc(Cl)cc2)c([N+](=O)[O-])cc1Cl [Compound 5k, 2-Chloro-5-[(4-chlorophenyl)sulfamoyl]-4-nitro-N-(2-nitrophenyl)benzamide]	36.9 ± 1.3	12.5 ± 0.91	150 to 152		
O=C(NCc1ccco1)c1cc(S(=O)(=O)Nc2ccc(Cl)cc2)c([N+](=O)[O-])cc1Cl [Compound 5u, 2-Chloro-5-[(4-chlorophenyl)sulfamoyl]-N-[(furan-2-yl)methyl]-4-nitrobenzamide]	89 ± 1.76	38.2 ± 0.34	191 to 193		
Cc1c(Cl)cccc1NC(=O)c1cc(S(=O)(=O)Nc2ccc(Cl)cc2)c([N+](=O)[O-])cc1Cl [Compound 5l, 2-Chloro-N-(3-chloro-2-methylphenyl)-5-[(4-chlorophenyl)sulfamoyl]-4-nitrobenzamide]	29 ± 0.86	6.3 ± 0.42	212 to 214		
C[C@H]1O[C@H](O[C@H]2[C@H](O)[C@@H](O)[C@@H](O[C@H]3[C@H](O)[C@@H](O)C(O)O[C@@H]3CO)O[C@@H]2CO)[C@H](O)[C@@H](O)[C@@H]1N[C@H]1C=C(CO)[C@@H](O)[C@H](O)[C@H]1O (stereo partly drawn) [Acarbose, reference compound]		5.6 ± 0.3			
O=C(Nc1ccccc1Cl)c1cc(S(=O)(=O)Nc2ccc(Cl)cc2)c([N+](=O)[O-])cc1Cl [Compound 5j, 2-Chloro-N-(2-chlorophenyl)-5-[(4-chlorophenyl)sulfamoyl]-4-nitrobenzamide]	15.8 ± 0.9	20.9 ± 1.24	176 to 178		
CCCNC(=O)c1cc(S(=O)(=O)Nc2ccc(Cl)cc2)c([N+](=O)[O-])cc1Cl [Compound 5s, 2-Chloro-5-[(4-chlorophenyl)sulfamoyl]-4-nitro-N-propylbenzamide]	106.2 ± 0.61	48.05 ± 0.23	116 to 118		
Cc1ccccc1NC(=O)c1cc(S(=O)(=O)Nc2ccc(Cl)cc2)c([N+](=O)[O-])cc1Cl [Compound 5c, 2-Chloro-5-[(4-chlorophenyl)sulfamoyl]-N-(2-methylphenyl)-4-nitrobenzamide]	26.8 ± 1.13	8 ± 0.71	88 to 90		
